Patent US20260210948A1, “FLUORESCENCE-BASED ASSAY FOR IDENTIFICATION OF PROTAC LIGANDS FOR HECT-TYPE E3 LIGASES” (Purdue Research Foundation, priority 2022, published 2026)

Key:
Rsp5 [1] = assay: Iodoacetamide inhibition assay, fluorescence polarization; assay type: biochemical, yeast (S. cerevisiae); conditions: Rsp5 incubated with iodoacetamide 12.5-500 μM for 1 hour
Experimental: Inhibition assays were conducted by first incubating 0.5 μm Rsp5/NEDD4L-Rsp5HYBRID with varying concentration of iodoacetamide (12.5-500 μM) for 1 hour in the reaction buffer (50 mM Tris pH 7.4, 100 mM NaCl, 1 mg/ml BSA). Fluorescence polarization was then measured after adding 0.25 μm E1 enzyme, 0.5 μm UbcH7, 100 μm Ub and 10 μm fluorescein-labeled peptide to the reaction well. The Z-factor (Z′) for the assay was calculated using eight replicates of the positive control (no iodoacetamide addition) and negative control (500 μM iodoacetamide addition). The initial slopes of each of the 16 reactions were calculated, followed by calculation of the positive control and negative control means (μ_+ and μ_−) and standard deviations (σ_+ and σ_−). The mean and standard deviation values were then used to calculate the Z-factor using the following formula (II):
(§1) All assays were carried out at least in triplicate, at a final reaction volume of 100 μL, and utilizing Grenier 96 well plates (Product no. 655097). Fluorescence polarization was measured using a Synergy H4 Plate Reader (BioTek) using 485 nm excitation and 528 nm emission filters.
An iodoacetamide inhibition assay to mimic peptide displacement conditions was performed to test robustness and reproducibility. […]

Rsp5 [2] = assay: Peptide-ubiquitination fluorescence polarization assay with Rsp5; assay type: biochemical, yeast (S. cerevisiae); conditions: Uba1, UbcH7, Rsp5 lacking the C2 domain, ATP and Ub; λex=485 nm; λem=528 nm
Experimental: Assays were performed by mixing […] enzyme, 0.5 μm UbcH7, 0.5 μm Rsp5/NEDD4L-Rsp5HYBRID, 100 μM Ub and 10 μM fluorescein-labeled peptide in (50 mM Tris pH 7.4, 100 mM NaCl, 1 mg/ml BSA) buffer. Reaction mixtures were left to equilibrate at room temperature for 10 minutes before taking measurements. Reactions were then started by adding 100 mM ATP. A sample of this reaction was also utilized for SDS-PAGE gel electrophoresis.
as §1
Target sequence in this assay (P39940 229-809 limits assumed): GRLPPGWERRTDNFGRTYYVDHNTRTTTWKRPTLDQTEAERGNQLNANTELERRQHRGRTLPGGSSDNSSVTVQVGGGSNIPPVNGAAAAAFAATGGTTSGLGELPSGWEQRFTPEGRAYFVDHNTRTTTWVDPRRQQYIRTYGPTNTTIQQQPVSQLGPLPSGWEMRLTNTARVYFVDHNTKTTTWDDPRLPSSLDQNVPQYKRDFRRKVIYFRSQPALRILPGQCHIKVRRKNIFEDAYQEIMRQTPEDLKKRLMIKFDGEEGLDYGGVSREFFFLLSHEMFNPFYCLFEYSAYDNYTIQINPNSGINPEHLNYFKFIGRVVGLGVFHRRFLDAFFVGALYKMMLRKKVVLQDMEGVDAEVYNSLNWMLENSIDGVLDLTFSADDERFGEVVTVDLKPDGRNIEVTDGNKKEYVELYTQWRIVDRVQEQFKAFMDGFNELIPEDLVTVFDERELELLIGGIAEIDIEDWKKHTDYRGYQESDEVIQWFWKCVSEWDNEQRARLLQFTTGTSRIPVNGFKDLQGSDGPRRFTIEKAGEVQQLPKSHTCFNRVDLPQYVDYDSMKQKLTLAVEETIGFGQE
A PPxY peptide based on a yeast vesicular snare protein (Sna4) containing the PPxY motif was designed, synthesized, and labeled with fluorescein at the N-terminus. An assay utilizing Uba1 (E1 ubiquitin (Ub)-activating enzyme), UbcH7 (E2 Ub-conjugating enzyme) and Rsp5 ([…] E3 Ub-ligase), which lacked the C2 domain to simplify in vitro screening, in the presence of adenosine triphosphate (ATP) and Ub was performed. Fluorescence polarization (FP) was recorded to monitor ubiquitination of the peptide. […] Ubiquitination of the PPxY peptide was confirmed by SDS-PAGE. […] No fluorescence polarization occurred in the absence of UbcH7, Rsp5, Ub, or ATP.

Molecule | rate of peptide ubiquitination (initial slope) (Rsp5 [1]) | fluorescence polarization (ubiquitination of the peptide) (Rsp5 [2])
NC(=O)CI [Iodoacetamide, iodoacetamide] | decreasing the rate of peptide ubiquitination | –
NKQSLVESPPPY [PPxY peptide, peptide mimicking residues 128-138 of yeast Sna4 with PPPY motif, fluorescein labeled on the N-terminus] | – | increase in fluorescence polarization
